# In patent US20240118281A1, “ANTICANCER COMPOUNDS AND USES THEREOF” (University of Florida Research Foundation, Incorporated, priority 2021, published 2024):
# What was measured:
# Type in all cases: cell-based
# DR4 [1] = assay: Disulfide bond-mediated oligomerization, non-reducing immunoblot
# Text: (§1) The BT20, BT474, BT549, MCF7, MDA-MB-231, MDA-MB-436, MDA-MB-468, HCC1143, HCC1500, HCC1569, HCC1937, HCC1954, Hs578t, and T47D cells lines were purchased from American Type Culture Collection (ATCC) (Manassas, VA). The HCI-001 cell line was derived from an ER-/PR-/HER2- patient-derived xenograft originally isolated from a patient as described previously (DeRose Y S, et al. Nat Med 2011; 17: 1514-1520). The HCI-001/LVM2 model was derived from the HCI-001 cell line by performing two rounds of selection for liver metastasis, as described previously (Wang M, et al. Cell Death Discovery 2019; 5: 153). Cell lines were grown in Dulbecco's Modified Eagle's Medium (GE Healthcare Life Sciences, Logan, UT) containing 10% fetal bovine serum (10% FBS—DMEM) in a humidified incubator with 5% CO2 at 37° C. Cell lysates were prepared as described previously (Law B K, et al. Mol Cell Biol. 2002; 22: 8184-8198). Immunoblot analysis was performed utilizing the following antibodies purchased from Cell Signaling Technology (Beverly, MA) [Akt, #4691; P-Akt[T308], #13038; ATF4, #11815; CHOP, #2895; Cleaved Caspase 8, #9496; DR4, #42533; DR5, #8074; EGFR, #4267; GRP78, #3177; HER3, #4754; PARP, #9532; PDIA1, #3501; XBP1s, #12782], from Santa Cruz Biotechnology (Santa Cruz, CA) [Actin, sc-47778; AGR2/3, sc-376653; AGR3, sc-390940; ERO1-a, sc-100805; and ERp44, sc-393687], or from Rockland Immunochemicals, Inc. (Limerick, PA), Streptavidin-Alkaline Phosphatase conjugated (SA-AP), S000-05.
# (§2) To assess protein disulfide bond-mediated oligomerization, cells were treated with DDAs for 24 h in 10% FBS-DMEM. Cells were subsequently scraped directly into the media and pelleted by centrifugation. Cells were extracted directly into boiling 2×-SDS-Sample Buffer containing 100 mM NEM and boiled for 10 min. Samples were sonicated, followed by centrifugation for 20 min at room temperature. Samples were subsequently analyzed by SDS-PAGE and immunoblot.
# EGFR = assay: as above; conditions: MDA-MB-468 cells, 24 h, FIG. 1E right
# Text: as §1, §2
# DR5 [2] = assay: Doxycycline-inducible DR5 (wild type and Cys mutants) expression, non-reducing immunoblot; conditions: MDA-MB-468 stable cell lines, 24 h, FIG. 7E
# Experimental: as §2
# MDA-MB-468 cells = assay: 3H-Leucine protein synthesis assay; conditions: 24 h, FIG. 9A
# Experimental: Protein synthesis assays utilizing ^3H-Leucine purchased from Perkin Elmer (Waltham, MA) were carried out as detailed previously (Law B K, et al. J Biol Chem 2000; 275: 10796-10801; Law B K, et al. J Biol Chem 2000; 275: 38261-38267).
# DR5 [3] = assay: Surface biotinylation; conditions: MDA-MB-468 cells, 2.5 μM, 24 h, amine- or thiol-reactive probes, FIG. 6D
# Experimental: (§3) Cell surface proteins were labeled by incubation of cells with 1.6 mM Sulfo-NHS-SS-Biotin (Thermo Fisher Scientific, Waltham, MA) or 1.6 mM Biotin-dPEG3-Maleimide (MilliporeSigma, St. Louis, MO) in Phosphate-Buffered Saline (PBS), pH 8.0 for 30 minutes at 4° C. The cells were subsequently washed three times with PBS, and proteins were extracted in a buffer containing 1% Triton X-100 extraction buffer in the absence of reducing agents. Cell extracts were then incubated with Streptavidin-agarose beads (Thermo Fisher Scientific, Waltham, MA) for 2.5 h at 4° C. Following centrifugation, the supernatant containing non-biotinylated proteins (flow-through) was retained and boiled in 2×-SDS-Sample Buffer containing 1% 2-mercaptoethanol. Streptavidin-agarose beads bound to biotinylated proteins were washed four times with 0.1% Triton X-100 extraction buffer, followed by boiling in 2×-SDS-Sample Buffer containing 1% 2-mercaptoethanol. Samples were then analyzed by immunoblot or blotting with Streptavidin-Alkaline Phosphatase.
# DR4 [4] = assay: Surface biotinylation; conditions: MDA-MB-468 cells, 2.5 μM, 24 h, amine- or thiol-reactive probes, FIG. 6D
# Experimental: as §3
smiles,measurement,setting,value
"CO[C@H]1C[C@@H]2CS(=O)(=O)SC[C@H]2C[C@@H]1OC [dMtcyDTDO, dimethoxy-tcyDTDO]","Levels and oligomerization of DR4, densitometry","DR4 [1]; 0, 1.25, 2.5, 5 uM, FIG. 1F",increases DR4 oligomerization without affecting overall DR4 levels
same,Concentration at which disulfide-mediated oligomerization of DR4 was detected,"DR4 [1]; MDA-MB-468 cells, 24 h, FIG. 1E right",625 nM
same,DR4/5 oligomerization at the same concentration (DR4),"DR4 [1]; MDA-MB-468 cells, 24 h, compared with tcyDTDO, FIG. 1E left",more DR4/5 oligomerization
same,Concentration at which disulfide-mediated oligomerization of EGFR was detected,EGFR,625 nM
same,Expression of C119S or C160S DR5 mutants,DR5 [2],did not further increase expression of the C119S or C160S DR5 mutants
same,Wild type DR5 expression on co-treatment with doxycycline,DR5 [2],further increased DR5 expression
same,Potency in protein synthesis assay relative to tcyDTDO,MDA-MB-468 cells,two-fold greater potency than tcyDTDO
same,Cell surface levels of DR5,DR5 [3],increased cell surface levels of DR4 and DR5
same,Cell surface levels of DR4,DR4 [4],increased cell surface levels of DR4 and DR5
